Tests used:
Conditions in all cases: Preemergence, 0 to 100 scale
[1] = system: tall mallow; test: Test D tall mallow; assay type: in vivo, Malva sylvestris
In short: (§1)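 Weed seeds planted in sandy loam; species kept apart in individual pots or compartments. Preemergence tests: treatment to soil surface within one day. Greenhouse growth, then visual injury scoring at 14–21 days (0–100).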

[2] = system: goosegrass; test: Test D goosegrass; assay type: in vivo, Eleusine indica
In short: as §1

[3] = system: purple nutsedge; test: Test D purple nutsedge; assay type: in vivo, Cyperus rotundus
From the text: (§2) Seeds, tubers, or plant parts of Alexandergrass (Brachiaria plantaginea), bermuda-grass (Cynodon dactylon), common pursiane (Portulaca oleracea), common ragweed (Ambrosia elatior), common groundsel (Senecio vulgaris), dallisgrass (Paspalum dilatatum), goosegrass (Eleusine indica), guineagrass (Panicum maximum), itchgrass (Rottboellia exaltata), Johnson grass (Sorghum halepense), large crabgrass (Digitaria sanguinalis), pitted morningglory (Ipomoea lacunosa), purple nutsedge (Cyperus rotundus), sandbur (Cenchrus echinatus), sourgrass (Trichachne insularis), Spanishneedles (Bidens bipinnata), surinam grass (Brachiaria decumbens) and tall mallow (Malva sylvestris) were planted into greenhouse pots of flats containing greenhouse planting medium. Plant species were grown in separate pots or individual compartments. Preemergence applications were made within one day of planting the seed or plant part.
(§3) Test chemicals were formulated in a non-phytotoxic solvent mixture which included a surfactant and applied preemergence to the surface of the pot containing seeds in a sandy loam soil. Untreated control pots and treated pots were placed in the greenhouse for growth and visually evaluated for injury 14 to 21 days after herbicide application. Plant response ratings, summarized in Table C, are based on a 0 to 100 scale where 0 is no injury and 100 is complete control. A dash (−) response means no test result.

[4] = system: common pursiane; test: Test D common purslane; assay type: in vivo, Portulaca oleracea
In short: as §1

[5] = system: Spanishneedles; test: Test D Spanishneedles; assay type: in vivo, Bidens bipinnata
In short: as §1

[6] = system: bermuda-grass; test: Test D bermudagrass; assay type: in vivo, Cynodon dactylon
From the text: as §2, §3

[7] = system: pitted morningglory; test: Test D pitted morningglory; assay type: in vivo, Ipomoea lacunosa
From the text: as §2
as §3, with “Plant response ratings, summarized in Table C, are based on a 0 to 100 scale where 0 is no injury and 100 is complete control.” left out

[8] = system: common ragweed; test: Test D common ragweed; assay type: in vivo, Ambrosia elatior
In short: as §1

[9] = system: sandbur; test: Test D sandbur; assay type: in vivo, Cenchrus echinatus
In short: as §1

[10] = system: guineagrass; test: Test D guineagrass; assay type: in vivo, Panicum maximum
From the text: as §2, §3

[11] = system: Alexandergrass; test: Test D Alexandergrass; assay type: in vivo, Brachiaria plantaginea
In short: as §1

[12] = system: large crabgrass; test: Test D large crabgrass; assay type: in vivo, Digitaria sanguinalis
In short: as §1

[13] = system: surinam grass; test: Test D surinam grass; assay type: in vivo, Brachiaria decumbens
From the text: as §2, §3

[14] = system: Johnson grass; test: Test D Johnson grass; assay type: in vivo, Sorghum halepense
From the text: as §2, §3

[15] = system: common groundsel; test: Test D common groundsel; assay type: in vivo, Senecio vulgaris
From the text: as §2, §3

[16] = Rate 16 g/ha, 0 no injury, 100 complete control
[17] = Rate 32 g/ha, 0 no injury, 100 complete control
[18] = Rate 64 g/ha, 0 no injury, 100 complete control
[19] = Rate 125 g/ha, 0 no injury, 100 complete control

## Cc1ccccc1-n1c(=O)on(C(=O)N(c2ccc(F)cc2)C(C)C)c1=O [Compound 4]
[1]; [16]
  Plant response rating, Tall Mallow: 0
[1]; [17]
  Plant response rating, Tall Mallow: 0
[1]; [18]
  Tall Mallow plant response rating: 0
[1]; [19]
  Tall Mallow plant response rating: 0
[1]; Rate 250 g/ha
  Plant response rating, Tall Mallow: 30
[1]; Rate 500 g/ha
  Plant response rating, Tall Mallow: 30
[2]; [16]
  Plant response rating, Goosegrass: 70
[2]; [17]
  Plant response rating, Goosegrass: 85
[2]; [18]
  Plant response rating, Goosegrass: 95
[2]; [19]
  Plant response rating, Goosegrass: 98
[2]; Rate 250 g/ha
  Plant response rating, Goosegrass: 98
[2]; Rate 500 g/ha
  Plant response rating, Goosegrass: 100
[3]; [16]
  Plant response rating, Purple nutsedge: 0
[3]; [17]
  Plant response rating, Purple nutsedge: 0
[3]; [18]
  Purple nutsedge plant response rating: 0
[3]; [19]
  Purple nutsedge plant response rating: 0
[3]; Rate 250 g/ha
  Plant response rating, Purple nutsedge: 0
[3]; Rate 500 g/ha
  Plant response rating, Purple nutsedge: 0
[4]; [16]
  Plant response rating, C. purslane: 0
[4]; [17]
  Plant response rating, C. purslane: 0
[4]; [18]
  Plant response rating, C. purslane: 0
[4]; [19]
  Plant response rating, C. purslane: 0
[4]; Rate 250 g/ha
  Plant response rating, C. purslane: 0
[4]; Rate 500 g/ha
  Plant response rating, C. purslane: 0
[5]; [16]
  Plant response rating, Spanishneedles: 0
[5]; [18]
  Spanishneedles plant response rating: 0
[5]; [19]
  Spanishneedles plant response rating: 40
[5]; Rate 500 g/ha
  Plant response rating, Spanishneedles: 0
[6]; [16]
  Plant response rating, Bermudagrass: 0
[6]; [17]
  Plant response rating, Bermudagrass: 0
[6]; [18]
  Plant response rating, Bermudagrass: 0
[6]; [19]
  Plant response rating, Bermudagrass: 30
[6]; Rate 250 g/ha
  Plant response rating, Bermudagrass: 98
[6]; Rate 500 g/ha
  Plant response rating, Bermudagrass: 98
[7]; [16]
  Plant response rating, P. morninglory: 0
[7]; [17]
  Plant response rating, P. morninglory: 0
[7]; [18]
  Plant response rating, P. morninglory: 0
[7]; [19]
  Plant response rating, P. morninglory: 0
[7]; Rate 250 g/ha
  Plant response rating, P. morninglory: 0
[7]; Rate 500 g/ha
  Plant response rating, P. morninglory: 0
[8]; [16]
  Plant response rating, C. ragweed: 0
[8]; [17]
  Plant response rating, C. ragweed: 0
[8]; [18]
  Plant response rating, C. ragweed: 0
[8]; [19]
  Plant response rating, C. ragweed: 0
[8]; Rate 250 g/ha
  Plant response rating, C. ragweed: 0
[8]; Rate 500 g/ha
  Plant response rating, C. ragweed: 0
[9]; [16]
  Plant response rating, Sandbur: 0
[9]; [17]
  Plant response rating, Sandbur: 0
[9]; [18]
  Sandbur plant response rating: 65
[9]; [19]
  Sandbur plant response rating: 30
[9]; Rate 250 g/ha
  Plant response rating, Sandbur: 90
[9]; Rate 500 g/ha
  Plant response rating, Sandbur: 100
[10]; [16]
  Plant response rating, Guineagrass: 20
[10]; [17]
  Plant response rating, Guineagrass: 20
[10]; [18]
  Plant response rating, Guineagrass: 50
[10]; [19]
  Plant response rating, Guineagrass: 90
[10]; Rate 250 g/ha
  Plant response rating, Guineagrass: 100
[10]; Rate 500 g/ha
  Plant response rating, Guineagrass: 100
[11]; [16]
  Plant response rating, Alexandergrass: 20
[11]; [17]
  Plant response rating, Alexandergrass: 20
[11]; [18]
  Plant response rating, Alexandergrass: 80
[11]; [19]
  Plant response rating, Alexandergrass: 80
[11]; Rate 250 g/ha
  Plant response rating, Alexandergrass: 90
[11]; Rate 500 g/ha
  Plant response rating, Alexandergrass: 100
[12]; [16]
  Plant response rating, Large crabgrass: 100
[12]; [17]
  Plant response rating, Large crabgrass: 100
[12]; [18]
  Plant response rating, Large crabgrass: 98
[12]; [19]
  Plant response rating, Large crabgrass: 100
[12]; Rate 250 g/ha
  Plant response rating, Large crabgrass: 100
[12]; Rate 500 g/ha
  Plant response rating, Large crabgrass: 100
[13]; [16]
  Plant response rating, Surinam grass: 0
[13]; [17]
  Plant response rating, Surinam grass: 0
[13]; [18]
  Surinam grass plant response rating: 65
[13]; [19]
  Surinam grass plant response rating: 90
[13]; Rate 250 g/ha
  Plant response rating, Surinam grass: 85
[13]; Rate 500 g/ha
  Plant response rating, Surinam grass: 98
[14]; [16]
  Plant response rating, Johnsongrass: 0
[14]; [17]
  Plant response rating, Johnsongrass: 0
[14]; [18]
  Plant response rating, Johnsongrass: 30
[14]; [19]
  Plant response rating, Johnsongrass: 0
[14]; Rate 250 g/ha
  Plant response rating, Johnsongrass: 30
[14]; Rate 500 g/ha
  Plant response rating, Johnsongrass: 30

## Cc1cccc(C)c1-n1c(=O)on(C(=O)N(c2ccccc2)C(C)C)c1=O [Compound 46]
[1]; [16]
  Plant response rating, Tall Mallow: 0
[1]; [17]
  Plant response rating, Tall Mallow: 0
[1]; [18]
  Tall Mallow plant response rating: 0
[1]; [19]
  Tall Mallow plant response rating: 10
[1]; Rate 250 g/ha
  Plant response rating, Tall Mallow: 10
[1]; Rate 500 g/ha
  Plant response rating, Tall Mallow: 10
[2]; [16]
  Plant response rating, Goosegrass: 0
[2]; [17]
  Plant response rating, Goosegrass: 20
[2]; [18]
  Plant response rating, Goosegrass: 75
[2]; [19]
  Plant response rating, Goosegrass: 85
[2]; Rate 250 g/ha
  Plant response rating, Goosegrass: 98
[2]; Rate 500 g/ha
  Plant response rating, Goosegrass: 100
[3]; [16]
  Plant response rating, Purple nutsedge: 0
[3]; [17]
  Plant response rating, Purple nutsedge: 0
[3]; [18]
  Purple nutsedge plant response rating: 0
[3]; [19]
  Purple nutsedge plant response rating: 0
[3]; Rate 250 g/ha
  Plant response rating, Purple nutsedge: 0
[3]; Rate 500 g/ha
  Plant response rating, Purple nutsedge: 0
[4]; [16]
  Plant response rating, C. purslane: 0
[4]; [17]
  Plant response rating, C. purslane: 0
[4]; [18]
  Plant response rating, C. purslane: 0
[4]; [19]
  Plant response rating, C. purslane: 0
[4]; Rate 250 g/ha
  Plant response rating, C. purslane: 0
[4]; Rate 500 g/ha
  Plant response rating, C. purslane: 0
[5]; [16]
  Plant response rating, Spanishneedles: 0
[5]; [17]
  Plant response rating, Spanishneedles: 0
[5]; [18]
  Spanishneedles plant response rating: 0
[5]; [19]
  Spanishneedles plant response rating: 10
[5]; Rate 500 g/ha
  Plant response rating, Spanishneedles: 20
[6]; [16]
  Plant response rating, Bermudagrass: 65
[6]; [17]
  Plant response rating, Bermudagrass: 85
[6]; [18]
  Plant response rating, Bermudagrass: 98
[6]; [19]
  Plant response rating, Bermudagrass: 100
[6]; Rate 250 g/ha
  Plant response rating, Bermudagrass: 100
[6]; Rate 500 g/ha
  Plant response rating, Bermudagrass: 100
[7]; [16]
  Plant response rating, P. morninglory: 0
[7]; [17]
  Plant response rating, P. morninglory: 0
[7]; [18]
  Plant response rating, P. morninglory: 0
[7]; [19]
  Plant response rating, P. morninglory: 0
[7]; Rate 250 g/ha
  Plant response rating, P. morninglory: 0
[7]; Rate 500 g/ha
  Plant response rating, P. morninglory: 0
[8]; [16]
  Plant response rating, C. ragweed: 0
[8]; [17]
  Plant response rating, C. ragweed: 0
[8]; [18]
  Plant response rating, C. ragweed: 0
[8]; [19]
  Plant response rating, C. ragweed: 0
[8]; Rate 250 g/ha
  Plant response rating, C. ragweed: 0
[8]; Rate 500 g/ha
  Plant response rating, C. ragweed: 0
[9]; [16]
  Plant response rating, Sandbur: 0
[9]; [17]
  Plant response rating, Sandbur: 0
[9]; [18]
  Sandbur plant response rating: 0
[9]; [19]
  Sandbur plant response rating: 0
[9]; Rate 250 g/ha
  Plant response rating, Sandbur: 0
[9]; Rate 500 g/ha
  Plant response rating, Sandbur: 0
[10]; [16]
  Plant response rating, Guineagrass: 0
[10]; [17]
  Plant response rating, Guineagrass: 0
[10]; [18]
  Plant response rating, Guineagrass: 30
[10]; [19]
  Plant response rating, Guineagrass: 30
[10]; Rate 250 g/ha
  Plant response rating, Guineagrass: 65
[10]; Rate 500 g/ha
  Plant response rating, Guineagrass: 85
[15]; [16]
  Plant response rating, Com. groundsel: 0
[15]; [17]
  Plant response rating, Com. groundsel: 0
[15]; [18]
  Plant response rating, Com. groundsel: 0
[15]; [19]
  Plant response rating, Com. groundsel: 0
[15]; Rate 250 g/ha
  Plant response rating, Com. groundsel: 0
[15]; Rate 500 g/ha
  Plant response rating, Com. groundsel: 0
[11]; [16]
  Plant response rating, Alexandergrass: 0
[11]; [17]
  Plant response rating, Alexandergrass: 0
[11]; [18]
  Plant response rating, Alexandergrass: 40
[11]; [19]
  Plant response rating, Alexandergrass: 65
[11]; Rate 250 g/ha
  Plant response rating, Alexandergrass: 75
[11]; Rate 500 g/ha
  Plant response rating, Alexandergrass: 80
[12]; [16]
  Plant response rating, Large crabgrass: 0
[12]; [17]
  Plant response rating, Large crabgrass: 20
[12]; [18]
  Plant response rating, Large crabgrass: 40
[12]; [19]
  Plant response rating, Large crabgrass: 98
[12]; Rate 250 g/ha
  Plant response rating, Large crabgrass: 100
[12]; Rate 500 g/ha
  Plant response rating, Large crabgrass: 100
[13]; [16]
  Plant response rating, Surinam grass: 0
[13]; [17]
  Plant response rating, Surinam grass: 0
[13]; [18]
  Surinam grass plant response rating: 0
[13]; [19]
  Surinam grass plant response rating: 0
[13]; Rate 250 g/ha
  Plant response rating, Surinam grass: 10
[13]; Rate 500 g/ha
  Plant response rating, Surinam grass: 30
[14]; [16]
  Plant response rating, Johnsongrass: 0
[14]; [17]
  Plant response rating, Johnsongrass: 0
[14]; [18]
  Plant response rating, Johnsongrass: 0
[14]; [19]
  Plant response rating, Johnsongrass: 40
[14]; Rate 250 g/ha
  Plant response rating, Johnsongrass: 40
[14]; Rate 500 g/ha
  Plant response rating, Johnsongrass: 60

Source: US6737383B1, “Herbicidal oxadiazolidines” (priority 1999, dated 2004)
